The results in this text go back to patent publication US6608086B2, “Dihydropyridines and new uses thereof” (Synaptic Pharmaceutical Corporation, priority 1993, dated 2003).

The target in data set [1] is T1, α1A Human Adrenergic Receptor (Homo sapiens, UniProt P25100).
T1 construct: The entire coding region of α1A (1719 bp); expressed in transfected cells
T1 sequence (P25100 1-572): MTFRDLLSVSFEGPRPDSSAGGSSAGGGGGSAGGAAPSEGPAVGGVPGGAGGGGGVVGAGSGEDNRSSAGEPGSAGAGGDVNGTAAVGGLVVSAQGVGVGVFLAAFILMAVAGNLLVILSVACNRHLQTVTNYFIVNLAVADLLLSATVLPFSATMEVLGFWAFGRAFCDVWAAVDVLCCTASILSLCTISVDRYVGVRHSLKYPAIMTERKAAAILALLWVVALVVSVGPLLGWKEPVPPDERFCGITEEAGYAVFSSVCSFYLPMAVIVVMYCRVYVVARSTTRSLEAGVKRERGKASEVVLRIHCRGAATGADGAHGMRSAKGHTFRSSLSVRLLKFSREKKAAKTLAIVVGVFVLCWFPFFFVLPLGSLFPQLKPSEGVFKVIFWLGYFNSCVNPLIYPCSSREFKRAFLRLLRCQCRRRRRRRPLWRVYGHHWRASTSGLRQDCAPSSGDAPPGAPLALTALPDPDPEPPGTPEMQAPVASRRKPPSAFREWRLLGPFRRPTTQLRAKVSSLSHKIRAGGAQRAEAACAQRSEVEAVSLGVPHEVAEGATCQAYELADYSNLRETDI
Briefly: Radioligand binding, [3H]prazosin, cloned human α1A adrenergic receptor. The essentials:
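Membranes from LM(tk−) cells transfected with cloned human α1A receptor, prepared in 50 mM Tris-HCl, 1 mM MgCl2, 0.1% ascorbic acid pH 7.5, were incubated with 0.5 nM [3H]prazosin at 37° C for 20 min. Nonspecific binding was defined with 10 μM phentolamine; bound ligand was separated by GF/B filtration.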

The target of data set [2] is T2, α1C Human Adrenergic Receptor (Homo sapiens, UniProt P35348).
T2 construct: The entire coding region of α1C (1401 bp); expressed in transfected cells
T2 sequence (P35348 1-466): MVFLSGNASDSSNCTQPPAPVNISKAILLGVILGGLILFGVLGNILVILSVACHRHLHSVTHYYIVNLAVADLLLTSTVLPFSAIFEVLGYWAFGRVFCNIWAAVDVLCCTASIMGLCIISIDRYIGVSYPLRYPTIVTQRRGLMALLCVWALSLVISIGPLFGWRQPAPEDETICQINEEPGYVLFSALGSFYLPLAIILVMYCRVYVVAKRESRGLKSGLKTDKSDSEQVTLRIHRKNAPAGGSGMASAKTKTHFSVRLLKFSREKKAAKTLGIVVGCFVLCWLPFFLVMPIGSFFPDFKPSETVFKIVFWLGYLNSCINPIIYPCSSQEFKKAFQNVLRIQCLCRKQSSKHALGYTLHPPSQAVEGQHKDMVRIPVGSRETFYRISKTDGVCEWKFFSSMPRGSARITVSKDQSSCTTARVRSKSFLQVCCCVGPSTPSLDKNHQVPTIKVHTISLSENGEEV
Briefly: Radioligand binding, [3H]prazosin, cloned human α1C adrenergic receptor. The essentials: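 Membranes from LM(tk−) cells stably expressing the cloned human α1C receptor were incubated with 0.5 nM [3H]prazosin at 37° C. for 20 min in 50 mM Tris-HCl, 1 mM MgCl2, 0.1% ascorbic acid, pH 7.5. Nonspecific binding was defined with 10 μM phentolamine, and bound ligand was separated by GF/B filtration.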

Setting [3] is: [3H]prazosin, cloned human receptor, LM(tk-) cell membranes, mean, read-out: PKi alpha-1 1a (converted).
[4] abbreviates: cloned human receptor, LM(tk-) cell membranes, mean, read-out: PKi alpha-1 1c (converted).
The mark [5] stands for this setting: PKi alpha-1 1a, [3H]prazosin, cloned human receptor, LM(tk-) cell membranes, mean.
The mark [6] stands for this setting: PKi alpha-1 1c, cloned human receptor, LM(tk-) cell membranes, mean.
The mark [7] stands for this setting: cloned human α1C receptor, LM(tk-) cell membranes, read-out: PKi alpha-1 1c (converted).
Where [8] appears, read: [3H]prazosin, cloned human α1A receptor, LM(tk-) cell membranes, read-out: PKi alpha-1 1a (converted).

Structures can show the parent of a compound that is named as a salt. Where two headings read alike, the source gives them in different places.

As a reminder, the melting point is the temperature of the solid-liquid transition. The compound `CCC1=C(C(N)=O)C(c2ccc([N+](=O)[O-])cc2)C(C(=O)NCCCN2CCC(C(=O)OC)(c3ccccc3)CC2)=C(CCCCN=[N+]=[N-])N1` (stereo not drawn) [Example 165, 2-(4-Azidobutyl)-3-{N-[3-(4-methoxycarbonyl-4-phenylpiperidin-1-yl)propyl]}carboxamido-5-carboxamido-6-ethyl-1,4-dihydro-4-(4-nitrophenyl)pyridine] showed a melting point of 74 to 77 °C. In addition, the Ki in data set [1] (setting [3]) is 1410 nM. For the same compound, in data set [2] (setting [4]), the Ki was 0.501 nM.
`CCC1=C(C(=O)NC)C(c2ccc([N+](=O)[O-])cc2)C(C(=O)NCCCN2CCC(c3ccccc3)(c3ccccc3)CC2)=C(CCCCOC)N1` (stereo not drawn) [Example 173, 6-Ethyl-1,4-dihydro-2-(4-methoxybutyl)-5-(N-methyl)carboxamido-4-(4-nitrophenyl)-3-{N-[3-(4,4-diphenylpiperidin-1-yl)propyl]}carboxamidopyridine] returned a melting point of 98 to 102 °C. Moreover, in data set [1] (setting [5]), the Ki is 741 nM. The same compound had a Ki in data set [2] (setting [6]) of 3.98 nM.
For the compound `COC(=O)C1(c2ccccc2)CCN(CCCNC(=O)C2=C(COCCCN)NC(C)=C(C(C)=O)C2c2ccc([N+](=O)[O-])cc2)CC1` (stereo not drawn) [Example 241, 5-Acetyl-2-((3-aminopropyl)oxy)methyl-1,4-dihydro-3-(N-(3-(4-methoxycarbonyl-4-phenylpiperidin-1-yl)propyl))carboxamido-6-methyl-4-(4-nitro)phenylpyridine], the melting point was 70 °C (dec.). In data set [1] (PKi alpha-1 1a), this compound gave a Ki of 1450 nM. Moreover, the Ki in data set [2] (setting [7]) is 4.37 nM.
`CCOC(=O)C1(c2ccccc2)CCN(CCCNC(=O)C2=C(COCCN)NC(CC)=C(C(=O)O)C2c2ccc([N+](=O)[O-])cc2)CC1` (stereo not drawn) [Example 196, 2-[(2-Aminoethoxy)methyl]-3-{N-[3-(4-ethoxycarbonyl-4-phenylpiperidin-1-yl)propyl]}carboxamido-1,4-dihydro-6-ethyl-4-(4-nitrophenyl)pyridine-5-carboxylic Acid] showed a melting point of 103 to 105 °C. The Ki in data set [1] (setting [3]) was 6760 nM. Also, the Ki in data set [2] (setting [4]) is 38.9 nM.
Compound `CCC1=C(C(N)=O)C(c2ccc([N+](=O)[O-])cc2)C(C(=O)NCCCN2CCC(C(=O)OC)(c3ccccc3)CC2)=C(CC)N1` (stereo not drawn) [Example 200] yielded a melting point of 112 to 114 °C. In data set [1] (PKi alpha-1 1a), this compound gave a Ki of 3310 nM. In addition, in data set [2] (setting [4]), the Ki is 4.37 nM.
Consider `CCOC(=O)C1(c2ccccc2)CCN(CCCNC(=O)C2=C(COCCN)NC(CC)=C(C(N)=O)C2c2ccc([N+](=O)[O-])cc2)CC1` (stereo not drawn) [Example 193, 2-[(2-Aminoethoxy)methyl]-5-carboxamido-3-{N-[3-(4-ethoxycarbonyl-4-phenylpiperidin-1-yl)propyl]}carboxamido-1,4-dihydro-6-ethyl-4-(4-nitrophenyl)pyridine], for which the melting point fell in the range of 87 to 89 °C. Also, the Ki in data set [1] (setting [3]) was 2880 nM. Further, the Ki in data set [2] (setting [4]) is 1.58 nM.
For `CCOC(=O)C1(c2ccccc2)CCN(CCCNC(=O)C2=C(COC)NC(CC)=C(C(=O)O)C2c2ccc([N+](=O)[O-])cc2)CC1` (stereo not drawn) [Example 240, 3-(N-3-(4-Ethoxycarbonyl-4-phenylpiperidin-1-yl)propyl)carboxamido-6-ethyl-1,4-dihydro-2-(methyloxy)methyl-4-(4-nitro)phenylpyridine-5-carboxylic Acid], the melting point lay within 116 to 126 °C. This compound also had a Ki in data set [1] (PKi alpha-1 1a) of 10000 nM. The Ki in data set [2] (setting [7]) was 26.9 nM.
As for `COC(=O)C1(c2ccccc2)CCN(CCCNC(=O)C2=C(COCCN)NC(C)=C(C(C)=O)C2c2ccc(F)cc2)CC1` (stereo not drawn) [Example 245, 5-Acetyl-2-((2-aminoethyl)oxy)methyl-4-(4-fluoro)phenyl-1,4-dihydro-3-(N-3-(4-methoxycarbonyl-4-phenylpiperidin-1-yl)propyl)carboxamido-6-methylpyridine], the Ki in data set [1] (setting [8]) was 977 nM; in data set [2] (setting [7]) it was 5.01 nM.
The compound `CCC1=C(C(=O)NC)C(c2ccc([N+](=O)[O-])cc2)C(C(=O)NCCCN2CCC(C(=O)OC)(c3ccccc3)CC2)=C(CCCCOC)N1` (stereo not drawn) [Example 174, 6-Ethyl-1,4-dihydro-2-(4-methoxybutyl)-3-{N-[3-(4-methoxycarbonyl-4-phenylpiperidin-1-yl)propyl]}carboxamido-5-(N-methyl)carboxamido-4-(4-nitrophenyl)pyridine] showed a melting point of 71 to 74 °C. Further, in data set [1] (setting [3]), the Ki is 3980 nM. The Ki in data set [2] (setting [4]) was 4.07 nM.
Taken in the same sequence, the figures for `CCNC(=O)C1=C(CC)NC(COCCN)=C(C(=O)NCCCN2CCC(C(=O)OCC)(c3ccccc3)CC2)C1c1ccc([N+](=O)[O-])cc1` (stereo not drawn) [Example 192, 2-[(2-Aminoethoxy)methyl]-3-{N-[3-(4-ethoxycarbonyl-4-phenyl-piperidin-1-yl)propyl]}carboxamido-1,4-dihydro-6-ethyl-5-(N-ethyl)carboxamido-4-(4-nitrophenyl)pyridine] were 112 to 114 °C, 3020 nM and 3.09 nM.
`CCOC(=O)C1(c2ccccc2)CCN(CCCNC(=O)C2=C(COCC(F)(F)F)NC(C)=C(C(N)=O)C2c2ccc([N+](=O)[O-])cc2)CC1` (stereo not drawn) [Example 243, 5-Carboxamido-3-(N-(3-(4-ethoxycarbonyl-4-phenylpiperidin-1yl)propyl))carboxamido-2-((2,2,2-trifluoroethyl)oxy)methyl-1,4dihydro-6-methyl-4-(4-nitro)phenylpyridine]: the Ki in data set [1] (setting [8]) was 1510 nM; in data set [2] (setting [7]) it was 5.75 nM.
Consider `CC(=O)C1=C(C)NC(COCCN)=C(C(=O)NCCCN2CCC(c3ccccc3)(c3ccccc3)CC2)C1c1ccc([N+](=O)[O-])cc1` (stereo not drawn) [Example 237, 5-Acetyl-2-((2-aminoethyl)oxy)methyl-1,4-dihydro-6-methyl-4-(4-nitro)phenyl 3-(N-(3-(4,4-diphenylpiperidin-1-yl)propyl)) carboxamidopyridine], for which the Ki in data set [1] (setting [5]) was 380 nM; in data set [2] (setting [6]) it was 2.63 nM.
As for `COc1cc2c(c(OC)c1)CCN(CCCNC(=O)C1=C(c3ccoc3)NC(C)=C(C(N)=O)C1c1ccc([N+](=O)[O-])cc1)C2.Cl.O` (stereo not drawn) [Example 67], the “pKi alpha-1 1a” value in data set [1] ([3H]prazosin, cloned human receptor in LM(tk-) cell membranes, SEM and n in lines below) is listed as 5.96. The “pKi alpha-1 1c” value in data set [2] (cloned human receptor in LM(tk-) cell membranes, SEM and n in lines below) is given as 6.48.
Turning to `CCC1=C(C(=O)NC)C(c2ccc([N+](=O)[O-])cc2)C(C(=O)NCCCN2CCC(C(=O)OC)(c3ccccc3)CC2)=C(CC)N1` (stereo not drawn) [Example 179, 2,6-Diethyl-1,4-dihydro-3-{N-[3-(4-methoxycarbonyl-4-phenyl-piperidin-1-yl)propyl]}carboxamido-5-(N-methyl)carboxamido-4-(4-nitrophenyl)pyridine], the figures for the Ki in data set [1] (PKi alpha-1 1a) and in data set [2] (setting [4]) were 4170 nM and 3.31 nM, respectively.
As to `COC(=O)C1=C(C)NC(C)=C(C(=O)NCCCN2CCC(c3ccccc3)CC2)C1c1ccc([N+](=O)[O-])cc1` (single isomer, unassigned; (+)) [(+)-45, 1,4-Dihydro-3-methoxycarbonyl-2,6-dimethyl-4-(4-nitrophenyl)-5-{N-[3-(4-phenylpiperidin-1-yl)propyl]}carboxamidopyridine hydrochloride hemihydrate], the Ki is 178 nM in data set [1] ([3H]prazosin, cloned human receptor in LM(tk-) cell membranes, SEM and n in lines below, read-out: pKi alpha-1 1a (converted)); 9.33 nM in data set [2] (cloned human receptor in LM(tk-) cell membranes, SEM and n in lines below, read-out: pKi alpha-1 1c (converted)).
